Results taken from patent US8754060B2, “Methods and compositions for inhibition of axonal degeneration by modulation of the DLK/JNK pathway” (Washington University, priority 2008, dated 2014).

Tests used:
DRG axons = assay: DRG axotomy model: axon degeneration 24 hours post-axotomy (phase contrast, degeneration index); type: cell-based, mouse
Excerpt: In these experiments, the inventors cultured embryonic mouse dorsal root ganglion cells (DRGs) for 14-16 days to allow their axons to radiate from the central core of cell bodies before severing the axons with a micro-scalpel. […] Axotomized DLK mutant axons have a 65%+/−3.2% (se) decrease in degeneration index (DI) relative to controls (p<0.0001, n=8 individual axotomized DRG cultures per condition, t-test). Vincristine treatment induces 59%+/−6.3% (se) less DI in DLK mutants relative to controls (p<0.002, n=7 DRG cultures per condition, t-test). […] The initially smooth and continuous axonal processes become rough and irregular axon fragments. The extent of axon breakdown was quantified by measuring the fraction of axonal area occupied by fragmented axons (degeneration index, DI). […] Because non-neuronal cells are eliminated in this DRG culture system, we concluded that DLK must be required within neurons themselves for the normal axon degenerative response.
In these experiments, to determine whether the axon degeneration pathway requires either JNK or p38, we used pharmacological inhibitors of each MAP kinase in the DRG axotomy model. Wild-type DRG cultures were treated with the JNK inhibitor SP600215 and the p38 inhibitor SB203580 starting from 24 hours before axotomy and for the remainder of the experiment.
Unless noted, vehicle and inhibitors were added 24 hours pre-axotomy and left on for the duration of the experiment. FIG. 3A: Vehicle (DMSO). FIG. 3B: SB203580 (P38 inhibitor). FIG. 3C: SP600215 (JNK inhibitor). FIG. 3D: SP600215 added 24 hr pre-axotomy, and removed just before axotomy. FIG. 3E: SF600215 added concurrently with axotomy. FIG. 3F: SP600215 added 3 hours post-axotomy. FIG. 3G: SP600215 added concurrent with axotomy and removed 3 hours post-axotomy.

cultured DRG neurons = settings: morphologically similar to that induced by axotomy (Wang et al. 2000; FIG. 2); cited from earlier work

| Compound | degeneration of DRG axons following axotomy (DRG axons; added 3 hours post-axotomy and continued for the rest of the experiment (FIG. 3F)) | degeneration of DRG axons following axotomy (DRG axons; added 24 hr pre-axotomy, and removed just before axotomy (FIG. 3D)) | degeneration of DRG axons following axotomy (DRG axons; added concurrent with axotomy and removed 3 hours post-axotomy (FIG. 3G), vs vehicle (DMSO)) | degeneration of DRG axons following axotomy (DRG axons; added concurrently with axotomy (FIG. 3E)) | degeneration of DRG axons following axotomy (DRG axons; inhibitor added 24 hours pre-axotomy and left on for the duration of the experiment, 24 hours post-axotomy, vs vehicle (DMSO) (FIG. 3B, 3C)) | axon degeneration triggered by the drug (cultured DRG neurons) |
| --- | --- | --- | --- | --- | --- | --- |
| O=C1c2ccccc2-c2n[nH]c3cccc1c23 [SP600215, Anthra[1,9-cd]pyrazol-6(2H)-one; 1,9-pyrazoloanthrone] | did not decrease axon degeneration | not protective | significantly less degenerated than A | protective | significantly less degenerated than A |  |
| CC[C@]1(O)C[C@H]2CN(CCc3c([nH]c4ccccc34)[C@@](C(=O)OC)(c3cc4c(cc3OC)N(C=O)[C@H]3[C@@](O)(C(=O)OC)[C@H](OC(C)=O)[C@]5(CC)C=CCN6CC[C@]43[C@@H]65)C2)C1 [vincristine] |  |  |  |  |  | triggers an axon degeneration |
